# Laboratory results reported in patent US12083115B2, “Methods for treating neurological symptoms associated with lysosomal storage diseases” (Genzyme Corporation, priority 2020, dated 2024).
# Where two headings read alike, the source gives them in different places.
# Assays:
# Assay type in all cases: in vivo, human
# [1] = tested on: adult patients with Gaucher disease Type 3; assay: Clinical study in GD-3 patients: ataxia, SARA scale; set-up: key to SARA Cumulative Score, Average Score excluding Patient 4 / SARA Cumulative Score: SARA, eight ataxia attributes summed, 0-40 scale; key to mean improvement in SARA score: change in SARA score (0-40 scale)
# Experimental: (§1) The endpoint assessments are related to safety, CSF biomarkers, pharmacokinetics/pharmacodynamics, systemic disease, and neuroimaging and neurological function (CNS/neurological manifestations).
# (§2) During the study patients were evaluated for safety and tolerability, CSF and plasma biomarkers (glucosylceramide, GL-1; glucosylsphingosine, lyso-GL1), pharmacokinetics, markers for systemic disease (spleen and liver volume measured by magnetic resonance imaging (MRI), platelet count, hemoglobin levels), indicia of interstitial lung disease (high resolution pulmonary computed tomography (CT)), and horizontal saccadic eye movement. In addition, exploratory biomarkers were quantified in CSF of GD3 patients: ceramide (the precursor of GL-1), chitotriosidase (CHITO), GM3, and GPNMB. Symptoms of ataxia were measured using the SARA scale, neurological symptoms were measured using the trail making test, and functional MRI was used to assess neural connectivity in the brain.
# The degree of ataxia at baseline and throughout the study was evaluated by the Scale for Assessment and Rating of Ataxia (SARA; Schmitz-Hubsch et al. [2006]), which assesses eight distinct attributes of cerebellar ataxia on a scale of 0-40. The eight attributes are gait, stance, sitting, speech disturbance, finger chase, nose-finger test, fast alternate hand movement, and heel-shin slide. SARA ataxia scoring results for all six patients is presented in the chart below: […]
# [2] = tested on: glucosylceramide (GL-1); assay: Clinical study in GD-3 patients: GL-1 in plasma and CSF; conditions: for GL-1 (% change): 52-weeks compared to baseline; for GL-1 concentration, 52-weeks (mean) / GL-1 concentration, 52-weeks: 15 mg/day + imiglucerase; for GL-1 concentration, 52-weeks: all six patients
# Experimental: as §1, §2
# Over all six GD3 patients, plasma and CSF GL-1 and lyso-GL-1 concentrations were as follows:
# At Week 52, the CSF lyso-GL1 concentrations for Patient 5 were above the upper limit of quantification (ULOQ; >100 pg/mL), and biomarker results for CSF lyso-GL1 were therefore imputed using the exact ULOQ values. […] Mean results for the other study subjects were as follows (N=10; Patient 5 excluded): […]
# [3] = Study 2: ascending repeated-dose PK in healthy adults; conditions: for AUC0-24, Geometric mean / AUC0-24, Mean / Cmax, Geometric mean / Cmax, Mean / tmax, median / CLR(0-24), Mean / CLss/F, Geometric mean / CLss/F, Mean / Ctrough, Geometric mean / Ctrough, Mean / CLR(0-24), Geometric mean / half-life: N = 9; for half-life: plasma
# Experimental: The study enrolled and randomized 36 healthy adults (19 men and 17 women) (n=9 each to group).
# Pharmacodynamic endpoints (plasma GL-1, GL-3, and GM3 concentrations) were assessed on Days 1-5, 8, 11, 13, and 14, at 0 hours […]; and on Day 15, at 24 hours after the Day 14 dose.
# [4] = Patient 5 (reduced Compound 2 exposure), Week 52 compared to baseline
# [5] = repeated once-daily doses from 5-20 mg
smiles,measurement,setting,value
"CC(C)(NC(=O)O[C@@H]1CN2CCC1CC2)c1csc(-c2ccc(F)cc2)n1 [Compound 2, (S)-quinuclidin-3-yl 2-(2-(4-fluorophenyl)thiazol-4-yl)propan-2-ylcarbamate]",mean SARA Score,"[1]; Excluding Patient 4, by Week 26, further slightly improved by Week 52",significantly decreased
same,SARA Cumulative Score,"[1]; Patient 1, Week 52, screening 3.0, 15 mg/day + imiglucerase",0.0
same,SARA Cumulative Score,"[1]; Patient 4, Week 52, screening 3.0, 15 mg/day + imiglucerase",4.5
same,SARA Cumulative Score,"[1]; Patient 5 (low Compound 2 exposure), Week 26, screening 0.5",0.0
same,SARA Cumulative Score,"[1]; Patient 5 (low Compound 2 exposure), Week 52, screening 0.5",0.0
same,mean improvement in SARA score,"[1]; Week 52, Excluding Patient 5 (SD=3.2)",−0.9
same,"SARA Cumulative Score, Average Score excluding Patient 4","[1]; Week 52, screening 2.80",0.90
same,GL-1 (% change),"[2]; CSF Concentration, N = 6, 15 mg/day + imiglucerase",−55.4%
same,GL-1 (% change),"[2]; CSF Concentration, N=10, Patient 5 excluded",−79% ± 12.1%
same,"GL-1 concentration, 52-weeks (mean)","[2]; CSF, N=10, Patient 5 excluded, Baseline 7.11 ng/ml",1.38 ng/mL
same,"GL-1 concentration, 52-weeks","[2]; CSF, Baseline 6.36 ng/ml",2.48 ng/mL
same,increase in CSF GL1,[2]; [4],~37%
same,increase in plasma GL1,[2]; [4],~14%
same,GL-1 (% change),"[2]; Plasma Concentration, N = 6, 15 mg/day + imiglucerase",−71.6%
same,GL-1 (% change),"[2]; Plasma Concentration, N=10, Patient 5 excluded",−77% ± 11.7%
same,"GL-1 concentration, 52-weeks (mean)","[2]; Plasma, N=10, Patient 5 excluded, Baseline 5.66 μg/mL",1280 ng/mL
same,"GL-1 concentration, 52-weeks","[2]; Plasma, Baseline 6.21 μg/mL",1590 ng/mL
same,Ctrough values over time,"[3]; 5, 10, or 20 mg once daily for 14 days",reached a plateau after Day 5
same,median time of plasma Cmax,"[3]; 5, 10, or 20 mg once daily for 14 days, Days 1 and 14",2 to 5 h
same,"AUC0-24, Geometric mean","[3]; Day 1, 5 mg once daily",292 ng·h/mL
same,"AUC0-24, Mean","[3]; Day 1, 5 mg once daily",296 ng·h/mL
same,"Cmax, Geometric mean","[3]; Day 1, 5 mg once daily",18.2 ng/mL
same,"Cmax, Mean","[3]; Day 1, 5 mg once daily",18.5 ng/mL
same,"tmax, median","[3]; Day 1, 5 mg once daily",5.00 h
same,"AUC0-24, Geometric mean","[3]; Day 1, 10 mg once daily",623 ng·h/mL
same,"AUC0-24, Mean","[3]; Day 1, 10 mg once daily",635 ng·h/mL
same,"Cmax, Geometric mean","[3]; Day 1, 10 mg once daily",37.8 ng/mL
same,"Cmax, Mean","[3]; Day 1, 10 mg once daily",38.5 ng/mL
same,"tmax, median","[3]; Day 1, 10 mg once daily",3.00 h
same,"AUC0-24, Geometric mean","[3]; Day 1, 20 mg once daily","1,080 ng · h/mL"
same,"AUC0-24, Mean","[3]; Day 1, 20 mg once daily","1,100 ng · h/mL"
same,"Cmax, Geometric mean","[3]; Day 1, 20 mg once daily",66.5 ng/mL
same,"Cmax, Mean","[3]; Day 1, 20 mg once daily",68.0 ng/mL
same,"tmax, median","[3]; Day 1, 20 mg once daily",3.07 h
same,"AUC0-24, Geometric mean","[3]; Day 14, 5 mg once daily",632 ng·h/mL
same,"AUC0-24, Mean","[3]; Day 14, 5 mg once daily",642 ng·h/mL
same,"CLR(0-24), Mean","[3]; Day 14, 5 mg once daily",1.55 L/h
same,"CLss/F, Geometric mean","[3]; Day 14, 5 mg once daily",5.9 L/h
same,"CLss/F, Mean","[3]; Day 14, 5 mg once daily",5.98 L/h
same,"Cmax, Geometric mean","[3]; Day 14, 5 mg once daily",36.5 ng/mL
same,"Cmax, Mean","[3]; Day 14, 5 mg once daily",37.0 ng/mL
same,"Ctrough, Geometric mean","[3]; Day 14, 5 mg once daily",19.0 ng/mL
same,"Ctrough, Mean","[3]; Day 14, 5 mg once daily",19.4 ng/mL
same,"tmax, median","[3]; Day 14, 5 mg once daily",3.00 h
same,"AUC0-24, Geometric mean","[3]; Day 14, 10 mg once daily","1,490 ng · h/mL"
same,"AUC0-24, Mean","[3]; Day 14, 10 mg once daily","1,550 ng · h/mL"
same,"CLR(0-24), Geometric mean","[3]; Day 14, 10 mg once daily",1.4 L/h
same,"CLR(0-24), Mean","[3]; Day 14, 10 mg once daily",1.49 L/h
same,"CLss/F, Geometric mean","[3]; Day 14, 10 mg once daily",5.0 L/h
same,"CLss/F, Mean","[3]; Day 14, 10 mg once daily",5.13 L/h
same,"Cmax, Geometric mean","[3]; Day 14, 10 mg once daily",86.0 ng/mL
same,"Cmax, Mean","[3]; Day 14, 10 mg once daily",89.7 ng/mL
same,"Ctrough, Geometric mean","[3]; Day 14, 10 mg once daily",47.5 ng/mL
same,"Ctrough, Mean","[3]; Day 14, 10 mg once daily",49.9 ng/mL
same,"tmax, median","[3]; Day 14, 10 mg once daily",2.00 h
same,"AUC0-24, Geometric mean","[3]; Day 14, 20 mg once daily","2,340 ng · h/mL"
same,"AUC0-24, Mean","[3]; Day 14, 20 mg once daily","2,420 ng · h/mL"
same,"CLR(0-24), Geometric mean","[3]; Day 14, 20 mg once daily",2.0 L/h
same,"CLR(0-24), Mean","[3]; Day 14, 20 mg once daily",2.07 L/h
same,"CLss/F, Geometric mean","[3]; Day 14, 20 mg once daily",6.4 L/h
same,"CLss/F, Mean","[3]; Day 14, 20 mg once daily",6.58 L/h
same,"Cmax, Geometric mean","[3]; Day 14, 20 mg once daily",137 ng/mL
same,"Cmax, Mean","[3]; Day 14, 20 mg once daily",142 ng/mL
same,"Ctrough, Geometric mean","[3]; Day 14, 20 mg once daily",69.9 ng/mL
same,"Ctrough, Mean","[3]; Day 14, 20 mg once daily",73.3 ng/mL
same,"tmax, median","[3]; Day 14, 20 mg once daily",3.00 h
same,half-life,"[3]; both sexes, human, oral, 5 mg, Day 14, 5 mg once daily, read-out: t1/2, Geometric mean (converted)",29 h
same,half-life,"[3]; both sexes, human, oral, 5 mg, Day 14, 5 mg once daily, read-out: t1/2, Mean (converted)",29.3 h
same,half-life,"[3]; both sexes, human, oral, 10 mg, Day 14, 10 mg once daily, read-out: t1/2, Geometric mean (converted)",31.2 h
same,half-life,"[3]; both sexes, human, oral, 10 mg, Day 14, 10 mg once daily, read-out: t1/2, Mean (converted)",31.3 h
same,half-life,"[3]; both sexes, human, oral, 20 mg, Day 14, 20 mg once daily, read-out: t1/2, Geometric mean (converted)",34.5 h
same,half-life,"[3]; both sexes, human, oral, 20 mg, Day 14, 20 mg once daily, read-out: t1/2, Mean (converted)",35 h
same,CL renal,"[3]; both sexes, human, urine and plasma, oral, After 14 once-daily doses, 5-20 mg, read-out: Mean CLR(0-24)",24.8 to 34.5 mL/min
same,effect of age and gender on accumulation,[3]; [5],neither age nor gender affected accumulation
same,time to steady state,[3]; [5],≤ 5 days
